In PubChem BioAssay AID328 (DTP/NCI, 2004):
“And” between values parts separate entries of the source, which are not always exact repeats. Equal entries are not always repeated. Inconclusive results and toxic doses are left out.

Tested on: BDF1 mice, P388 leukemia ip, median survival T/C
Test: NCI In Vivo Anticancer Drug Screen. Data for tumor model P388 Leukemia (intraperitoneal) in B6D2F1 (BDF1) mice
Conditions: endpoint: median survival time, higher = longer survival
In short: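 T/C = treated-group survival ÷ vehicle-control survival; tumour transplanted into mice before dosing.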

[1] = dose: 50.0 mg/kg/injection, schedule: Q01DX009 (ip), vehicle: saline with Tween-80
[2] = dose: 100.0 mg/kg/injection, schedule: Q01DX009 (ip), vehicle: saline with Tween-80
[3] = dose: 100.0 mg/kg/injection, schedule: Q04DX003 (ip), vehicle: saline with Tween-80
[4] = dose: 200.0 mg/kg/injection, schedule: Q01DX009 (ip), vehicle: saline with Tween-80
[5] = dose: 200.0 mg/kg/injection, schedule: Q04DX003 (ip), vehicle: saline with Tween-80
[6] = dose: 400.0 mg/kg/injection, schedule: Q01DX009 (ip), vehicle: saline with Tween-80
[7] = dose: 400.0 mg/kg/injection, schedule: Q04DX003 (ip), vehicle: saline with Tween-80
[8] = dose: 100.0 mg/kg/injection, schedule: Q01DX009 (ip), vehicle: saline
[9] = dose: 200.0 mg/kg/injection, schedule: Q01DX009 (ip), vehicle: saline

COc1ccc(OC)c(C(C)(O)CC(=O)O)c1 (centres undefined)
T/C [1]: 89 % of control
T/C [2]: 107 % of control
T/C [3]: 112 % of control
T/C [4]: 105 % of control
T/C [5]: 103 % of control
T/C [6]: 90 % of control
T/C [7]: 117 % of control

NC(Cc1cc(Cl)c(O)c(Cl)c1)C(=O)O (centres undefined)
T/C [8]: 94 % of control
T/C (dose: 150.0 mg/kg/injection, schedule: Q01DX009 (ip), vehicle: saline): 97 % of control
T/C [9]: 105 % of control

CCCC(Nc1nccs1)Nc1nccs1
T/C [1]: 107 % of control
T/C [2]: 101 % of control
T/C [4]: 101 % of control

Cc1ccc2oc(=O)c(C3=CC(=O)C(SC(=N)N)C=C3O)c(O)c2c1 (centres undefined)
T/C (dose: 50.0 mg/kg/injection, schedule: Q01DX005 (ip), vehicle: Klucel (hydroxypropylcellulose) (HPC)): 95 % of control
T/C (dose: 100.0 mg/kg/injection, schedule: Q01DX005 (ip), vehicle: Klucel (hydroxypropylcellulose) (HPC)): 97 % of control
T/C (dose: 200.0 mg/kg/injection, schedule: Q01DX005 (ip), vehicle: Klucel (hydroxypropylcellulose) (HPC)): 91 % of control

CN(C)CC#N
T/C (dose: 10.0 mg/kg/injection, schedule: Q04DX003 (ip), vehicle: saline): 108 % of control
T/C (dose: 20.0 mg/kg/injection, schedule: Q04DX003 (ip), vehicle: saline): 91 % of control
T/C (dose: 40.0 mg/kg/injection, schedule: Q04DX003 (ip), vehicle: saline): 95 % of control

CCOn1nnc2cc(Cl)ccc21
T/C [3]: 113 % of control
T/C [5]: 113 % of control
T/C [7]: 106 % of control

O=C(/C=N/O)Nc1cc(Cl)ccc1Cl
T/C [2]: 95 % of control
T/C [3]: 100 % of control
T/C [4]: 90 % of control
T/C [5]: 100 % of control
T/C [6]: 90 % of control
T/C [7]: 100 % of control

NC(=O)NN=C1CCC(c2ccccc2)CC1 (centres undefined)
T/C [1]: 112 % of control
T/C [2]: 112 % of control

COc1cc(OC)cc(C(=O)Br)c1
T/C [2]: 91 % of control
T/C [3]: 90 % of control
T/C [4]: 91 % of control
T/C [5]: 90 % of control
T/C [6]: 91 % of control
T/C [7]: 95 % of control

CN(C)CCCNC1=CC(=O)c2ccccc2C1=O
T/C (dose: 1.56 mg/kg/injection, schedule: Q04DX003 (ip), vehicle: water): 108 % of control
T/C (dose: 3.12 mg/kg/injection, schedule: Q04DX003 (ip), vehicle: water): 97 % of control and 98 % of control
T/C (dose: 6.25 mg/kg/injection, schedule: Q01DX009 (ip), vehicle: water): 99 % of control
T/C (dose: 6.25 mg/kg/injection, schedule: Q04DX003 (ip), vehicle: water): 91 % of control and 101 % of control
T/C (dose: 12.5 mg/kg/injection, schedule: Q01DX009 (ip), vehicle: water): 103 % of control
T/C (dose: 12.5 mg/kg/injection, schedule: Q04DX003 (ip), vehicle: water): 97 % of control and 102 % of control
T/C (dose: 25.0 mg/kg/injection, schedule: Q01DX009 (ip), vehicle: water): 110 % of control
T/C (dose: 25.0 mg/kg/injection, schedule: Q04DX003 (ip), vehicle: water): 103 % of control and 119 % of control
T/C (dose: 50.0 mg/kg/injection, schedule: Q01DX009 (ip), vehicle: water): 94 % of control
T/C (dose: 50.0 mg/kg/injection, schedule: Q04DX003 (ip), vehicle: water): 91 % of control
T/C (dose: 100.0 mg/kg/injection, schedule: Q01DX009 (ip), vehicle: water): 103 % of control

COc1ccc(CCNC(=O)CCN2C(=O)c3ccccc3C2=O)cc1OC
T/C [3]: 104 % of control
T/C [5]: 90 % of control
T/C [7]: 100 % of control

Cc1ccccc1C[P+](c1ccccc1)(c1ccccc1)c1ccccc1
T/C (dose: 0.39 mg/kg/injection, schedule: Q01DX009 (ip), vehicle: Klucel (hydroxypropylcellulose) (HPC)): 100 % of control
T/C (dose: 0.39 mg/kg/injection, schedule: Q04DX003 (ip), vehicle: Klucel (hydroxypropylcellulose) (HPC)): 100 % of control
T/C (dose: 0.78 mg/kg/injection, schedule: Q01DX009 (ip), vehicle: Klucel (hydroxypropylcellulose) (HPC)): 108 % of control
T/C (dose: 0.78 mg/kg/injection, schedule: Q04DX003 (ip), vehicle: Klucel (hydroxypropylcellulose) (HPC)): 122 % of control
T/C (dose: 1.56 mg/kg/injection, schedule: Q01DX009 (ip), vehicle: Klucel (hydroxypropylcellulose) (HPC)): 112 % of control
T/C (dose: 1.56 mg/kg/injection, schedule: Q04DX003 (ip), vehicle: Klucel (hydroxypropylcellulose) (HPC)): 113 % of control
T/C (dose: 3.12 mg/kg/injection, schedule: Q01DX009 (ip), vehicle: saline): 150 % of control
T/C (dose: 3.5 mg/kg/injection, schedule: Q04DX003 (ip), vehicle: Klucel (hydroxypropylcellulose) (HPC)): 104 % of control
T/C (dose: 13.2 mg/kg/injection, schedule: Q04DX003 (ip), vehicle: saline with Tween-80): 113 % of control
T/C (dose: 30.0 mg/kg/injection, schedule: Q04DX003 (ip), vehicle: saline with Tween-80): 104 % of control

O=C1c2ccccc2C2CCCC12 (centres undefined)
T/C [1]: 105 % of control
T/C [2]: 120 % of control
T/C [4]: 112 % of control

CCN(CC)CCOc1cccc(C)c1C
T/C (dose: 25.0 mg/kg/injection, schedule: Q04DX003 (ip), vehicle: saline with Tween-80): 96 % of control
T/C (dose: 50.0 mg/kg/injection, schedule: Q04DX003 (ip), vehicle: saline with Tween-80): 100 % of control
T/C [3]: 116 % of control

CC1=CC(C)(C)Nc2ccc(CSc3ccccc3)cc21
T/C (dose: 50.0 mg/kg/injection, schedule: Q01DX009 (ip), vehicle: saline + alcohol): 102 % of control
T/C (dose: 100.0 mg/kg/injection, schedule: Q01DX009 (ip), vehicle: saline + alcohol): 120 % of control
T/C (dose: 200.0 mg/kg/injection, schedule: Q01DX009 (ip), vehicle: saline + alcohol): 120 % of control

CN(C)c1ccc(C(=O)O)cn1
T/C (dose: 50.0 mg/kg/injection, schedule: Q01DX009 (ip), vehicle: saline): 100 % of control
T/C [8]: 101 % of control
T/C (dose: 100.0 mg/kg/injection, schedule: Q04DX003 (ip), vehicle: saline): 102 % of control
T/C (dose: 200.0 mg/kg/injection, schedule: Q01DX007 (ip), vehicle: saline): 110 % of control
T/C [9]: 92 % of control
T/C (dose: 200.0 mg/kg/injection, schedule: Q04DX003 (ip), vehicle: saline): 100 % of control
T/C (dose: 300.0 mg/kg/injection, schedule: Q01DX007 (ip), vehicle: saline): 108 % of control
T/C (dose: 400.0 mg/kg/injection, schedule: Q01DX007 (ip), vehicle: saline): 100 % of control
T/C (dose: 400.0 mg/kg/injection, schedule: Q04DX003 (ip), vehicle: saline): 109 % of control
T/C (dose: 500.0 mg/kg/injection, schedule: Q01DX007 (ip), vehicle: saline): 106 % of control
T/C (dose: 600.0 mg/kg/injection, schedule: Q01DX007 (ip), vehicle: saline): 110 % of control

CCCCCCCCCC(=O)OCC1OC(=O)C(C)N(C)C(=O)CN(C)C(=O)C2C(=O)CC(C)N2C(=O)C(C(C)C)NC(=O)C1NC(=O)c1c2nc3c(C(=O)NC4C(=O)NC(C(C)C)C(=O)N5C(C)CC(OC(=O)CCCCCCCCC)C5C(=O)N(C)CC(=O)N(C)C(C(C)C)C(=O)OC4C)ccc(C)c3oc-2c(C)c(=O)c1N (centres undefined)
T/C (dose: 0.1 mg/kg/injection, schedule: Q01DX009 (ip), vehicle: saline with Tween-80): 105 % of control
T/C (dose: 0.2 mg/kg/injection, schedule: Q01DX009 (ip), vehicle: saline with Tween-80): 93 % of control
T/C (dose: 0.3 mg/kg/injection, schedule: Q04DX003 (ip), vehicle: saline with Tween-80): 107 % of control
T/C (dose: 0.4 mg/kg/injection, schedule: Q01DX009 (ip), vehicle: saline with Tween-80): 89 % of control
T/C (dose: 0.6 mg/kg/injection, schedule: Q04DX003 (ip), vehicle: saline with Tween-80): 92 % of control
T/C (dose: 0.8 mg/kg/injection, schedule: Q01DX001 (ip), vehicle: saline with Tween-80): 98 % of control
T/C (dose: 0.8 mg/kg/injection, schedule: Q01DX009 (ip), vehicle: saline with Tween-80): 96 % of control
T/C (dose: 1.6 mg/kg/injection, schedule: Q01DX001 (ip), vehicle: saline with Tween-80): 107 % of control
T/C (dose: 1.6 mg/kg/injection, schedule: Q01DX009 (ip), vehicle: saline with Tween-80): 117 % of control
T/C (dose: 2.4 mg/kg/injection, schedule: Q04DX003 (ip), vehicle: saline with Tween-80): 96 % of control
T/C (dose: 3.2 mg/kg/injection, schedule: Q01DX001 (ip), vehicle: saline with Tween-80): 100 % of control
T/C (dose: 4.8 mg/kg/injection, schedule: Q04DX003 (ip), vehicle: saline with Tween-80): 92 % of control
T/C (dose: 6.4 mg/kg/injection, schedule: Q01DX001 (ip), vehicle: saline with Tween-80): 100 % of control
T/C (dose: 12.8 mg/kg/injection, schedule: Q01DX001 (ip), vehicle: saline with Tween-80): 97 % of control
